Measured values published in US9434724B2, “Quinuclidines for modulating alpha 7 activity” (priority 2014, dated 2016).

Target: rat brain nicotinic receptor (α7 NAChR) (Rattus norvegicus (Rat), UniProt Q05941)
Type: binding

Chain of rat brain nicotinic receptor (α7 NAChR) (Q05941 23-502 limits assumed): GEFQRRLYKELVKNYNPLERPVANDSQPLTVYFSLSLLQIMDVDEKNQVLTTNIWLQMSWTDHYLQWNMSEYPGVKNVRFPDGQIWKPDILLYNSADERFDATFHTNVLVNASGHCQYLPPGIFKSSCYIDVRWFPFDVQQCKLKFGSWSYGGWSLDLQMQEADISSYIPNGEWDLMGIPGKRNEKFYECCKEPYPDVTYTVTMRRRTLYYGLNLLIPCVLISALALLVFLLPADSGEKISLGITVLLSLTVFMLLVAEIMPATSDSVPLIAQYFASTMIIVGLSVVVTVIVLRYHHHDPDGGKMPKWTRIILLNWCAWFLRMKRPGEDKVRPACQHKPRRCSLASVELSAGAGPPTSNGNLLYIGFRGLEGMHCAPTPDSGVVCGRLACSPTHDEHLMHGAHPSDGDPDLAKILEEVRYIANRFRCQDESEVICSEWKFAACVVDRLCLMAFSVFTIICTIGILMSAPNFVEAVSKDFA

For `Cc1cc2c(C(=O)OCC34CCN(CC3)CC4)c[nH]c2cc1F` [Compound 58, quinuclidin-4-ylmethyl 6-fluoro-5-methyl-1H-indole-3-carboxylate], the IC50 was 1810 nM and the Ki was 1550 nM.
